Measurements: patent US8048872B2, “Treatment of hyperproliferative diseases with vinca alkaloid N-oxide and analogs” (Stat of Oregon Acting by and Through The Oregon State Board …, priority 2006, dated 2011)
Where “and” joins values, the source holds several entries; their conditions need not be identical. Identical values can stand only once. Like-named read-outs stand apart in the source and are kept apart here.

Key:
[1] = tested on: Human H460 lung adenocarcinoma tumor cells
Method: Cells were exposed with gentle rocking to a constant level of low oxygen (0.2% O2-5% CO2-balance N2) in a hypoxia apparatus (INVIVO2400 Hypoxia Workstation, Ruskin Technology) for 12 hr at 37° C. Identically treated cells were incubated under normoxia (air-5% CO2) at 37° C. Cells were harvested and lysed in DNA lysis buffer (20 mM Tris-HCL, pH 8.0, 1 mM EDTA, 0.1% Triton X-100) and stored at −80° C. for analysis of DNA content and LC/MS/MS analysis. […] Lysates were mixed with 150 ml of methanol containing 0.1% acetic acid and vinca alkaloid internal standard, and vortexed for 10 min, and centrifuged for 5 min at 18000 g. Clarified supernatants were transferred to HPLC vials fitted with glass inserts and analyzed by LC-MS/MS. Chromatography was performed on an Acquity HPLC system fitted with an Acquity BEH C18 column, and used 0.1% (v:v) formic acid in water for mobile phase A, and 0.1% (v:v) formic acid in acetonitrile for mobile phase B. Mass spectral analysis was performed using a Micromass Quattro Micro triple quadupole mass spectrometer.
The amounts of each compound were calculated from standard curves.

[2] = tested on: human K562 myelogenous leukemia cells; assay: in vivo
Method: In one example, female nude mice (n=10) were inoculated subcutaneously with 15×10^6 human K562 myelogenous leukemia cells in a 1:1 ratio with matrigel on the right flank. Tumor volumes were monitored and calculated using the formula: Tumor volume=(a^2×b/2) where ‘a’ is the smallest diameter and ‘b’ is the largest diameter. Once the established tumors reached approximately 75-150 mm^3 (individual tumor volumes may range from […]) the mice were assigned to the various vehicle control and treatment groups such that the mean tumor volumes in the treated groups were within 10% of the mean tumor weight in the vehicle control group. On the same day (day 1) and days 4, 7, 10, and 13, vinca-alkaloid N-oxide analogs (VCR-NO, VBL-NO) were administered intravenously according to a q3d×5 schedule. Mice were also treated with vehicle (negative control) and the standard agents, vinblastine and vincristine (positive controls). Tumor volumes were recorded three times a week starting when tumors were palpable and including the day of study termination. Animals were monitored for signs of toxicity and body weights were recorded twice a week starting on the first day of treatment and including the day of study termination. […] The mean day of sacrifice were calculated to determine the tumor growth delay and tumor growth inhibition effects of each test article as compared to vehicle control. […] Statistical significance between the treated vs. control groups was evaluated by logrank analysis.

[3] = tested on: H460 lung carcinoma tumor cells; assay type: cell-based, human
[4] = tested on: human H460 lung adenocarcinoma cells
Method: Human H460 lung adenocarcinoma tumor cells were cultured in DMEM-10% FBS under standard conditions. One-hundred mm plastic culture dishes were seeded with 1×10^6 tumor cells/dish and treated with vinca alkaloids or N-oxide analogs at a 0.01-100 nM dose range. Cells were exposed with gentle rocking to a constant level of low oxygen (0.2, 1% or 5% O2-5% CO2-balance N2) in a hypoxia apparatus (INVIVO2400 Hypoxia Workstation, Ruskin Technology) for 14 hr at 37° C. Identically treated cells were incubated under normoxia (air-5% CO2) at 37° C. Cells were harvested and replated in fresh medium at a density of 1×10^3 cells/well in 48-well plastic culture plates to assess viability 24-72 hr later. Briefly, Alamar Blue was added to replicate wells on Day 0 and Day 3, and cells were incubated for a further 3-6 hr at 37° C. before fluorescence readings using a plate reader (530-560 nm excitation, 590 emission). The percent inhibition of proliferation was calculated and plotted against control-treated cells at each drug concentration. […] The Hypoxia Cytotoxicity Ratio (HCR) was defined as ((IC50 in Hypoxia)/(IC50 in Normoxia)).

[5] = tested on: multiple human solid tumor cell lines; assay: Hypoxia-induced cytotoxicity across cell lines (HCR range); assay type: cell-based
Method: (§1) Tumor cell line were cultured in DMEM-10% FBS under standard conditions. One-hundred mm plastic culture dishes were seeded with 1×10^6 tumor cells and treated with vinca alkaloids or N-oxide analogs at a dose range of 0.01-100 nM. Cells were exposed with gentle rocking to a constant level of low oxygen (0.2% O2-5% CO2-balance N2) in a hypoxia apparatus (INVIVO2400 Hypoxia Workstation, Ruskin Technology) for 14 hr at 37° C. Identically treated cells were incubated under normoxia (air-5% CO2) at 37° C. Cells were harvested and replated in fresh medium at a density of 1×10^3 cells/well in 48-well plastic culture plates to assess viability 24-72 hr later. Briefly, Alamar Blue was added to replicate wells on Day 0 and Day 3, and cells were incubated for a further 3-6 hr at 37° C. before fluorescence readings using a plate reader (530-560 nm excitation, 590 emission). The percent inhibition of proliferation was calculated and plotted against control-treated cells at each drug concentration. […] The Hypoxia Cytotoxicity Ratio (HCR) was determined as the ratio of the IC50 of the compound under normoxic conditions vs. hypoxic conditions.

[6] = mouse, in vivo
Method: Body weights were monitored twice weekly and up to 2 weeks following treatment. Mice were also injected ip with 4 or 6 mg/kg vinblastine using the same q3d×5 schedule as a positive control.

[7] = tested on: human HL60 promyelocytic leukemia cells; conditions: in vivo
[8] = tested on: FaDU head and neck tumor cell lines
Method: as §1

[9] = mouse, in vivo; remark: listed apart in the source
Method: Body weights were monitored twice weekly and up to 2 weeks following treatment. Mice were also injected iv with 0.6 or 1 mg/kg vincristine using the same q3d×5 schedule as a positive control.

[10] = tested on: A549 non-small cell lung carcinoma
Method: as §1

[11] = tested on: human HT29 colorectal adenocarcinoma; design: species or system mouse; conditions: in vivo
[12] = tested on: murine P388 leukemic tumor cells; assay: in vivo; conditions: mouse, in vivo
Method: For example, B6D2F1 mice (n=8/group) were inoculated subcutaneously (sc) in the right flank with 1×10^6 murine L1210 leukemic tumor cells. […] Test agents were administered on multiple treatment regimen (q3d×5) to yield optimal dose schedule benefit. Vehicle control treated mice served as the negative control group; mice treated with the bioreduced parent compounds, vincristine and vinblastine, dosed at their […] (MTDs), served as the positive control groups. Tumors were measured with calipers twice weekly and tumor volume calculated using the formula: Tumor Volume (mm^3)=((width)^2×length)/2. Animals were monitored for signs of toxicity and weighed daily for the first 5 days of the study and then twice-weekly until the study end. As pre-defined in the protocol, each animal was actively euthanized when its tumor reached the pre-determined endpoint size of 2000 mm^3 or at the conclusion of the study (day 37) whichever came first. The time to endpoint (TTE) was calculated for each mouse as TTE (days)=(log10(endpoint volume mm^3)−b)/m where b is the intercept and m is the slope of the line obtained by linear regression of a log-transformed tumor growth data set. Treatment outcome was determined from tumor growth delay (TGD) which is defined as the increase in median TTE in a treatment (T) group as compared to the control (C) group (TGD=T−C) expressed in days or as a percentage of the median TTE of the control group % TGD=((T−C)/C)×100. […] Statistical significance between the treated vs. control groups was evaluated by logrank analysis.
This model was developed by subcutaneously inoculating B6D2F1 mice (n=8/group) with 1×10^6 murine P388 leukemic tumor cells using similar methodology to that described above for L1210. […] Agents were administered on multiple treatment regimen (q3d×5) to yield optimal dose schedule benefit. Efficacy of treatment with the N-oxide analogs was determined by Tumor Growth Delay (TGD) and Kaplan-Meier survival analysis as described for L1210, the exception being that the conclusion of the study was day 45 or the predefined endpoint size of 2000 mm^3 whichever came first. Vehicle control treated mice served as the negative control group; mice treated with the standard agents, vincristine and vinblastine, dosed at their MTDs, served as the positive control groups.

Method for SiHa: as §1

CC[C@]1(O)C[C@H]2C[C@](C(=O)OC)(c3cc4c(cc3OC)N(C)[C@H]3[C@@](O)(C(=O)OC)[C@H](OC(C)=O)[C@]5(CC)C=CCN6CC[C@]43[C@@H]65)c3[nH]c4ccccc4c3CC[N@+]([O-])(C2)C1 [Vinblastine N-oxide, Vinblastine N′b-Oxide]
bioreduction to parent compound [1]: bioreduced to vinblastine under hypoxia exposure | Tumor Growth Inhibition [2]: 77% and 89% | Hypoxia Cytotoxicity Ratio [3]: ~20 | IC50 inhibitory activity after activation under hypoxia [3]: low nanomolar | cytotoxicity vs oxygen concentration [4]: Increased cytotoxicity | HCR values [5]: 3-21 | body weight loss / gross symptoms of toxicity [6]: no evidence of significant body weight loss or gross symptoms of toxicity | Tumor Growth Inhibition [7]: 91% and 94% | Hypoxia Cytotoxicity Ratio (HCR) [8]: 7.5 | Hypoxia Cytotoxicity Ratio (HCR) (SiHa): 4.3

CC[C@]1(O)C[C@@H]2C[C@](C(=O)OC)(c3cc4c(cc3OC)N(C=O)[C@H]3[C@@](O)(C(=O)OC)[C@@H](OC(C)=O)[C@]5(CC)C=CCN6CC[C@]43[C@@H]65)c3[nH]c4ccccc4c3CC[N@+]([O-])(C2)C1 [Vincristine N-oxide, Vincristine N′b-Oxide]
body weight loss / gross symptoms of toxicity [9]: no evidence of significant body weight loss or gross symptoms of toxicity | Hypoxia Cytotoxicity Ratio (HCR) [10]: 11.2 | bioreduction to parent compound [1]: bioreduced to vincristine under hypoxia exposure | Tumor Growth Delay [11]: 42% | Tumor Growth Inhibition [2]: 69% and 84% and 60% | HCR values [5]: 5-25 | Tumor Growth Delay [12]: 76% and 54% | Tumor Growth Inhibition [7]: 94% and 96% | Hypoxia Cytotoxicity Ratio (HCR) [8]: 6
